# Earlier results, collected in US10260097B2, “Method of using a gene expression profile to determine cancer responsiveness to an anti-angiogenic agent” (Almac Diagnostics Limited, priority 2011, dated 2019).
# What was measured:
# most cancers = details: bevacizumab added to cytotoxic chemotherapy
# ovarian cancer patients = ovarian cancer patients receiving bevacizumab monotherapy
# renal cancer patients = renal cancer patients receiving bevacizumab monotherapy
# rectal cancer patients = rectal cancer patients receiving bevacizumab monotherapy
substance,measurement,setting,value
bevacizumab,overall survival (OS) benefit,most cancers,no overall survival (OS) benefit
same,patients showing partial regression,ovarian cancer patients,21%
same,patients showing partial regression,renal cancer patients,10%
same,patients showing partial regression,rectal cancer patients,33%
